# Measured values: EPA's ToxRefDB 2
# Experiments:
# rat [1] = settings: Prenatal developmental toxicity study; wistar; Injection; Intravenous; dose end: 18 GD; group: maternal; systemic / in life observation / body weight / body weight gain + systemic / in life observation / clinical signs / motor activity + …
# mouse [2] = settings: Subchronic oral toxicity in rodents, other, Gavage/Intubation, dose end: 90 day, group: systemic
# rat [3] = settings: Subchronic oral toxicity in rodents, wistar, Gavage/Intubation, dose end: 3 month, group: systemic
# rat [4] = settings: Chronic toxicity, wistar, Oral, Gavage/Intubation, dose end: 6 month, group: systemic
# rat [5] = settings: Subchronic oral toxicity in rodents; wistar; Injection; Intravenous; dose end: 3 month; group: systemic; systemic / clinical chemistry / urea nitrogen / urea + systemic / hematology / erythrocyte (rbc) count differential / erythrocyte (rbc) + …
# dog [6] = settings: Subchronic oral toxicity in nonrodent; beagle; Injection; Intravenous; dose end: 3 month; group: systemic; systemic / hematology / erythrocyte (rbc) count differential / erythrocyte (rbc) + systemic / hematology / hematocrit (hct) / hematocrit (…
# mouse [7] = settings: Carcinogenicity, other, Oral, Gavage/Intubation, dose end: 106 week, group: systemic
# rat [8] = settings: Fertility (Segment I), wistar, Oral, Gavage/Intubation, dose end: 7 GD
# dog [9] = settings: Chronic toxicity, beagle, Oral, Capsule, dose end: 6 month, group: systemic
# mouse [10] = settings: Carcinogenicity; cd1; Oral; Feed; dose end: 18 month; group: systemic; systemic / pathology microscopic / stomach / hyperplasia
# rat [11] = settings: Chronic toxicity, fischer, Oral, Feed, dose end: 104 week, group: systemic
# dog [12] = settings: Chronic toxicity, beagle, Oral, Feed, dose end: 52 week, group: systemic
# rat [13] = settings: Subchronic oral toxicity in rodents, fischer, Feed, dose end: 90 day, group: systemic, systemic / organ weight / kidney / absolute + systemic / organ weight / kidney / relative to body weight + systemic / pathology gross / …
# dog [14] = settings: Chronic toxicity, beagle, Oral, Capsule, dose end: 52 week, group: systemic
# rat [15] = settings: Subchronic oral toxicity in rodents, sprague dawley, Feed, dose end: 13 week, group: systemic
# mouse [16] = settings: Carcinogenicity, cd1, Oral, Feed, dose end: 24 month, group: systemic
# dog [17] = settings: Subchronic oral toxicity in nonrodent, beagle, Feed, dose end: 13 week, group: systemic
# rat [18] = settings: Neurotoxicity screening battery; sprague dawley; Oral; Feed; dose end: 90 day; group: cannot be grouped; systemic / in life observation / body weight / body weight + systemic / in life observation / food consumption / food consumption + systemic…
# rat [19] = settings: Sub-acute dermal toxicity, fischer, Topical, dose end: 21 day, group: systemic, systemic / in life observation / clinical signs / desquamation + systemic / pathology microscopic / skin / hyperkeratosis + systemic / …
# [20] = systemic / organ weight / liver / relative to body weight + systemic / organ weight / kidney / absolute
# [21] = systemic / clinical chemistry / alkaline phosphatase (alp/alk) / alkaline phosphatase (alp/alk) + systemic / clinical chemistry / calcium / …
# [22] = systemic / clinical chemistry / glucose / glucose + systemic / hematology / hemoglobin (hgb) / hemoglobin (hgb) + systemic / hematology / …
# [23] = systemic / hematology / reticulocyte / reticulocyte + systemic / in life observation / clinical signs / teeth whitening + systemic / in life…
# [24] = systemic / in life observation / clinical signs / tooth-broken
# [25] = systemic / hematology / erythrocyte (rbc) count differential / erythrocyte (rbc) + systemic / hematology / hematocrit (hct) / hematocrit (…
# [26] = systemic / hematology / leukocyte (wbc) count differential / leukocyte (wbc) + systemic / organ weight / kidney / relative to body weight
# [27] = group: maternal, reproductive / reproductive performance / estrous cycle / corpora lutea + reproductive / reproductive performance / implantations / …
# [28] = group: parental, systemic / in life observation / body weight / body weight + systemic / in life observation / clinical signs / ataxia + systemic / in life …
# [29] = systemic / clinical chemistry / alanine aminotransferase (alt/sgpt) / alanine aminotransferase (alt/sgpt)
# [30] = systemic / clinical chemistry / alanine aminotransferase (alt/sgpt) / alanine aminotransferase (alt/sgpt) + systemic / in life observation…
# [31] = systemic / pathology microscopic / kidney / hyperplasia + systemic / pathology microscopic / kidney / karyomegaly + systemic / in life …
# [32] = systemic / pathology microscopic / kidney / karyomegaly
# [33] = systemic / pathology gross / stomach / adhesions + systemic / pathology gross / stomach / thickened + systemic / pathology microscopic / …
# [34] = systemic / pathology microscopic / stomach / congestion + systemic / pathology microscopic / stomach / mineralization + systemic / clinical …
# [35] = systemic / pathology microscopic / kidney / inclusion body intracytoplasmic
# [36] = systemic / organ weight / liver / relative to body weight
# [37] = systemic / pathology microscopic / liver / inflammation + systemic / clinical chemistry / alanine aminotransferase (alt/sgpt) / alanine …
smiles,measurement,setting,value
CC(C)c1ccc(C(=O)N=C(N)N)cc1S(C)(=O)=O.CS(=O)(=O)O [Cariporide mesylate],LEL,rat [1],125 mg/kg/day
same,LOAEL,rat [1],> 125 mg/kg/day
same,NEL,rat [1],25 mg/kg/day
same,NOAEL,rat [1],≥ 125 mg/kg/day
same,NOAEL,mouse [2]; systemic / organ weight / liver / relative to body weight + systemic / in life observation / clinical signs / abnormal gait + systemic / in …,250 mg/kg/day
same,LEL,mouse [2]; [20],250 mg/kg/day
same,LOAEL,mouse [2]; [20],500 mg/kg/day
same,NEL,mouse [2]; [20],< 250 mg/kg/day
same,LOAEL,rat [3]; [21],> 1000 mg/kg/day
same,NOAEL,rat [3]; [21],≥ 1000 mg/kg/day
same,LEL,rat [3]; [22],400 mg/kg/day
same,NEL,rat [3]; [22],< 400 mg/kg/day
same,LOAEL,rat [4]; [23],25 mg/kg/day
same,NOAEL,rat [4]; [23],5 mg/kg/day
same,LEL,rat [4]; [24],5 mg/kg/day
same,NEL,rat [4]; [24],< 5 mg/kg/day
same,LEL,rat [5],125 mg/kg/day
same,LOAEL,rat [5],125 mg/kg/day
same,NEL,rat [5],25 mg/kg/day
same,NOAEL,rat [5],25 mg/kg/day
same,LEL,dog [6],1.25 mg/kg/day
same,LOAEL,dog [6],> 20 mg/kg/day
same,NEL,dog [6],< 1.25 mg/kg/day
same,NOAEL,dog [6],≥ 20 mg/kg/day
same,LOAEL,mouse [7]; [25],> 500 mg/kg/day
same,NOAEL,mouse [7]; [25],≥ 500 mg/kg/day
same,LEL,mouse [7]; [26],50 mg/kg/day
same,NEL,mouse [7]; [26],< 50 mg/kg/day
same,LEL,rat [8]; [27],400 mg/kg/day
same,LOAEL,rat [8]; [27],> 400 mg/kg/day
same,NEL,rat [8]; [27],100 mg/kg/day
same,NOAEL,rat [8]; [27],≥ 400 mg/kg/day
same,LOAEL,rat [8]; [28],> 400 mg/kg/day
same,NEL,rat [8]; [28],25 mg/kg/day
same,NOAEL,rat [8]; [28],≥ 400 mg/kg/day
same,LEL,"rat [8]; group: parental, systemic / in life observation / clinical signs / salivation",100 mg/kg/day
same,LEL,dog [9]; [29],8 mg/kg/day
same,LOAEL,dog [9]; [30],> 20 mg/kg/day
same,NEL,dog [9]; [30],3.2 mg/kg/day
same,NOAEL,dog [9]; [30],≥ 20 mg/kg/day
N#Cc1c(Cl)c(Cl)c(Cl)c(C#N)c1Cl [Chlorothalonil],LEL,mouse [10],1.9 mg/kg/day
same,LOAEL,mouse [10],1.9 mg/kg/day
same,NEL,mouse [10],< 1.9 mg/kg/day
same,NOAEL,mouse [10],< 1.9 mg/kg/day
same,LOAEL,rat [11]; [31],175 mg/kg/day
same,NOAEL,rat [11]; [31],15 mg/kg/day
same,LEL,rat [11]; [32],1.5 mg/kg/day
same,NEL,rat [11]; [32],< 1.5 mg/kg/day
same,LOAEL,dog [12]; [33],43.3 mg/kg/day
same,NOAEL,dog [12]; [33],5.1 mg/kg/day
same,LEL,dog [12]; [34],5.1 mg/kg/day
same,NEL,dog [12]; [34],< 5.1 mg/kg/day
same,LEL,rat [13],175 mg/kg/day
same,LOAEL,rat [13],175 mg/kg/day
same,NEL,rat [13],< 175 mg/kg/day
same,NOAEL,rat [13],< 175 mg/kg/day
same,LEL,dog [14]; [29],15 mg/kg/day
same,NEL,dog [14]; [29],< 15 mg/kg/day
same,LOAEL,dog [14]; systemic / in life observation / body weight / body weight gain,500 mg/kg/day
same,NOAEL,dog [14]; systemic / in life observation / body weight / body weight gain + systemic / clinical chemistry / alanine aminotransferase (alt/sgpt) / …,150 mg/kg/day
same,LEL,rat [15]; [35],1.5 mg/kg/day
same,LOAEL,rat [15]; [35],3 mg/kg/day
same,NEL,rat [15]; [35],< 1.5 mg/kg/day
same,NOAEL,rat [15]; systemic / pathology microscopic / kidney / inclusion body intracytoplasmic + systemic / pathology microscopic / kidney / hyperplasia,1.5 mg/kg/day
same,LOAEL,mouse [16]; systemic / in life observation / body weight / body weight,225 mg/kg/day
same,NOAEL,mouse [16]; systemic / in life observation / body weight / body weight + systemic / hematology / erythrocyte (rbc) count differential / erythrocyte (rbc…,112 mg/kg/day
same,LEL,mouse [16]; [36],56.2 mg/kg/day
same,NEL,mouse [16]; [36],< 56.2 mg/kg/day
same,LOAEL,dog [17]; systemic / pathology microscopic / liver / infiltration cellular + systemic / pathology microscopic / liver / inflammation,56.5 mg/kg/day
same,NOAEL,dog [17]; systemic / pathology microscopic / liver / infiltration cellular + systemic / pathology microscopic / liver / inflammation + systemic / …,5.6 mg/kg/day
same,LEL,dog [17]; [37],5.6 mg/kg/day
same,NEL,dog [17]; [37],< 5.6 mg/kg/day
same,LEL,rat [18],232 mg/kg/day
same,LOAEL,rat [18],232 mg/kg/day
same,NEL,rat [18],22 mg/kg/day
same,NOAEL,rat [18],22 mg/kg/day
same,LEL,rat [19],60 mg/kg/day
same,LOAEL,rat [19],60 mg/kg/day
same,NEL,rat [19],< 60 mg/kg/day
same,NOAEL,rat [19],< 60 mg/kg/day
